Data taken from ChEMBL document CHEMBL6071209, “Design, Synthesis, and Biological Evaluation of a Series of Spiro Analogues as Novel HPK1 Inhibitors” (ACS Med Chem Lett, 2024).

Tests used:
[1] = mouse, in vivo, po, 10 mg/kg, 24 h
[2] = rat, in vivo, po, 10 mg/kg, 24 h
in vivo [3] = conditions: BALB/c, mouse, iv, 1 mg/kg
in vivo [4] = conditions: BALB/c, mouse, po, 10 mg/kg
in vivo [5] = conditions: BALB/c, mouse, iv, 1 mg/kg; remark: listed apart in the source
in vivo [6] = conditions: Sprague-Dawley, rat, iv, 1 mg/kg
[7] = Volume of distribution in BALB/c mouse at 1 mg/kg, iv measured upto 24 hrs by LC-MS/MS method; assay type: ADME, organism-based; conditions: in vivo
[8] = Clearance in Beagle dog at 1 mg/kg, iv measured upto 24 hrs by LC-MS/MS method; assay type: ADME, organism-based, Canis lupus familiaris; conditions: in vivo
[9] = Volume of distribution in Beagle dog at 1 mg/kg, iv measured upto 24 hrs by LC-MS/MS method; assay type: ADME, organism-based, Canis lupus familiaris; conditions: in vivo
[10] = Bioavailability in Beagle dog at 1 mg/kg, iv measured upto 24 hrs by LC-MS/MS method; assay type: ADME, organism-based, Canis lupus familiaris; conditions: in vivo
[11] = Volume of distribution in Sprague-Dawley rat at 1 mg/kg, iv measured upto 24 hrs by LC-MS/MS method; assay type: ADME, organism-based; conditions: in vivo
[12] = mouse, in vivo, iv, 1 mg/kg, 24 h
[13] = dog, in vivo, po, 2 mg/kg, 24 h
in vivo [14] = conditions: Sprague-Dawley, rat, iv, 1 mg/kg; remark: listed apart in the source
in vivo [15] = conditions: Sprague-Dawley, rat, iv, 1 mg/kg; remark: listed apart in the source
in vivo [16] = conditions: beagle, dog, po, 2 mg/kg

AUC/dose [1]	AUC/dose [2]	clearance at 24 h (in vivo [3])	half-life at 24 h (in vivo [4])	bioavailability at 24 h (in vivo [5])	half-life at 24 h (in vivo [6])	Vd [7]	clearance [8]	Vd [9]	bioavailability [10]	Vd [11]	F [12]	AUC/dose [13]	clearance at 24 h (in vivo [14])	bioavailability at 24 h (in vivo [15])	half-life at 24 h (in vivo [16])	Compound
290.2 ng·h/mL	43.5 ng·h/mL	28 mL/min/kg	1.4 h	50%	4.1 h	–	–	–	–	–	–	–	–	–	–	O=C1NCc2c(-c3cnc4cc(F)ccn34)ccc(Nc3ccc4c(n3)CN(CCN3CC[C@@H](F)C3)C43CCOCC3)c21
224.5 ng·h/mL	31.2 ng·h/mL	138 mL/min/kg	3.7 h	–	–	5 L/kg	108 mL/min/kg	24.2 L/kg	4.9%	12.5 L/kg	187%	6.5 ng·h/mL	230 mL/min/kg	38%	1.5 h	CN(C)Cc1nc(Nc2ccc(-c3cnc4cc(F)ccn34)c3c2C(=O)NC3)ccc1C1CCOCC1
–	15.3 ng·h/mL	–	–	–	1 h	–	–	–	–	–	–	–	–	–	–	COC1CCC2(CC1)c1ccc(Nc3ccc(-c4cnc5cc(F)ccn45)c4c3C(=O)NC4)nc1CN2C (configuration not stated)
